From patent US20210121460A1, “A TRIPLE PHARMACEUTICAL COMBINATION COMPRISING DABRAFENIB, TRAMETINIB AND AN ERK INHIBITOR” (NOVARTIS AG, priority 2018, published 2021)

These molecules were tested on BRAF V600E CRC xenograft model HT29 (assay: In vivo antitumor efficacy, HT29 BRAF V600E CRC xenograft model (Example 4, 14 day)). Conditions: HT29 in female nude mice; compound A 75 mg/kg, dabrafenib 30 mg/kg, trametinib 0.3 mg/kg QD PO, cetuximab 20 mg/kg 2QW IP.
Description: HT29 xenografts was established by direct subcutaneous (sc) implantation of 2×10^6 cells into the right axillary region of 6-7 week old female nude mice.
Animals were weighed at dosing day(s) and dose was body weight adjusted, dosing volume was 10 ml/kg. Tumor dimensions and body weights were collected at the time of randomization and twice weekly thereafter for the study duration.
Percent treatment/control (T/C) values were calculated using the following formulae:
% Regression=100×ΔT/T0 if ΔT<0;
where: T=mean tumor volume of the drug-treated group on the final day of the study; ΔT=mean tumor volume of the drug-treated group on the final day of the study—mean tumor volume of the drug-treated group on initial day of dosing; T0=mean tumor volume of the drug-treated group on the day of cohort; C=mean tumor volume of the control group on the final day of the study; and ΔC=mean tumor volume of the control group on the final day of the study—mean tumor volume of the control group on initial day of dosing.
All data were expressed as mean±standard error of the mean (SEM). Delta tumor volume and percent body weight changes were used for statistical analysis. Between group comparisons were carried out using the One way ANOVA followed by a post hoc Tukey test. For all statistical evaluations, the level of significance was set at p<0.05. Significance compared to the untreated control group is reported unless otherwise stated.

Point of comparison: `CC(C)(C)c1nc(-c2cccc(NS(=O)(=O)c3c(F)cccc3F)c2F)c(-c2ccnc(N)n2)s1` [dabrafenib, N-(3-(5-(2-aminopyrimidin-4-yl)-2-(tert-butyl)thiazol-4-yl)-2-fluorophenyl)-2,6-difluorobenzenesulfonamide], “T/C % or Reg % at day 39 post implantation” value 58.8%. Against it:
- CNC[C@@H](NC(=O)c1ccc(-c2nc([C@H]3CC[C@H](O)[C@@H](F)C3)cnc2N)cc1F)c1cc(F)cc(Br)c1 [compound A, 4-(3-amino-6-((1S,3S,4S)-3-fluoro-4-hydroxycyclohexyl)pyrazin-2-yl)-N—((S)-1-(3-bromo-5-fluorophenyl)-2-(methylamino)ethyl)-2-fluorobenzamide] — lower, 53.8%
- CC(=O)Nc1cccc(-n2c(=O)n(C3CC3)c(=O)c3c(Nc4ccc(I)cc4F)n(C)c(=O)c(C)c32)c1 [trametinib, N-(3-(3-cyclopropyl-5-((2-fluoro-4-iodophenyl)amino)-6,8-dimethyl-2,4,7-trioxo-3,4,6,7-tetrahydropyrido[4,3-d]pyrimidin-1(2H)-yl)phenyl)acetamide] — lower, 47.7%
